We go through two compounds from patent US8206732B2, “Pyrithione biocides enhanced by silver, copper, or zinc ions” (Arch Chemicals, Inc., priority 1999, dated 2012).

For assay [1], the system named is Staphylococcus aureus 27217. As to the kind of experiment: Checkerboard MIC test, pyrithiones with silver salts. To be noted: silver ion alone or in the inhibitory mixture; TSB pH 7.3, 35° C., 1 to 2 days. Type of assay: cell-based.
The test system of assay [2] is Escherichia coli 10536. The description is as above. It counts as cell-based. To be noted: silver ion alone or in the inhibitory mixture; TSB pH 7.3, 35° C., 1 to 2 days.
The test system of assay [3] is Pseudomonas aeruginosa 9027. The assay is described as above. It counts as cell-based. To be noted: silver ion alone or in the inhibitory mixture; TSB pH 7.3, 35° C., 1 to 2 days.
The subject of assay [4] is Candida albicans 10251. Described as above. Type of assay: cell-based. To be noted: silver ion alone or in the inhibitory mixture; TSB pH 7.3, 35° C., 1 to 2 days.
Assay [5] relates to Pityrosporum ovale 1452. Described as above. Type of assay: cell-based. To be noted: silver ion alone or in the inhibitory mixture; Ushijima Medium pH 5.5, 35° C., 1 to 2 days.
The test system of assay [6] is Pseudomonas aeruginosa ATCC 9027. As to the kind of experiment: MIC in Tryptic Soy Broth, microtiter (Example 1). Type of assay: cell-based. As to conditions: TSB, 28° C., incubated 5-6 days; single agent (NaPT without Cu).
Assay [7] relates to Aspergillus niger ATCC 6275. The experiment in a line: MIC in Tryptic Soy Broth, microtiter (Example 1). It counts as cell-based. As to conditions: TSB, 28° C., incubated 7-8 days; single agent (NaPT without Cu).
The test system of assay [8] is Fusarium sp. As to the kind of experiment: MIC in Tryptic Soy Broth, microtiter (Example 1). As to conditions: TSB, 28° C., incubated 5 days; single agent (NaPT without Cu). Type of assay: cell-based. On the procedure: Equal volumes of bacterial suspension (10^6 bacteria per milliliter of TSB) containing Pseudomonas aeruginosa ATCC 9027 or fungal spore suspension (10^5 spores per milliliter of TSB) containing Aspergillus niger ATCC 6275 or species of Fusarium and Cephalosporium isolated from contaminated metalworking fluid were added to each microtiter plate well, and the plates were incubated at 28° C. Controls were prepared for cultures inoculated into TSB with and without Cu (II).

The subject of assay [9] is Cephalosporium sp. The experiment in a line: MIC in Tryptic Soy Broth, microtiter (Example 1). It counts as cell-based. As to conditions: TSB, 28° C., incubated 5 days; single agent (NaPT without Cu).
For assay [10], the system named is seven strains of bacteria isolated from contaminated metalworking fluid. The experiment in a line: Challenge test in metalworking fluid emulsion, bacterial viable plate counts (Example 4, FIG. 1). Type of assay: cell-based, Pseudomonas spp., Alcaligenes faecalis, Citrobacter freundii. To be noted: 250 ppm (v/v) NaPT (40% active), 10 ppm Cu (II) or Zn(II); challenged twice over 40 days.

Assay [11] has as its system Fusarium sp. and Cephalosporium sp. As to the kind of experiment: Challenge test in metalworking fluid emulsion, fungal viable plate counts (Example 4, FIG. 2). Type of assay: cell-based. As to conditions: 250 ppm (v/v) NaPT (40% active), 10 ppm Cu (II) or Zn(II); challenged twice over 40 days. On the procedure:
An emulsion was prepared from a 5% dilution of a concentrate, consisting of mineral oil (83.5%), sulfonated hydrocarbon (10.7%), oleic acid (1.0%), triethanolamine (0.8%), methyl tallowate (3.0%), and propylene glycol ether (1.0%) and dispensed into Erlenmeyer flasks. Each sample was challenged twice over a period of 40 days with 10^7 calls of bacteria and 10^5 fungal spores per milliliter of emulsion. The challenge consisted of seven strains of bacteria and 2 strains of fungi originally isolated from contaminated metalworking fluid: Pseudomonas rubescens NCIMB 12202, Pseudomonas stutzeri sp., Pseudomonas fluorescens NCIMB 12202, Pseudomonas aeruginosa CIMB 6749, Pseudomonas olevorans NCIMB 6576, Alcaligenes faecalis sp., Citrobacter freundii CIMB 12203, Fusarium sp., and Cephalosporium sp. The fluids were agitated continuously on a rotary shaker, and surviving bacteria and fungi were enumerated periodically by viable plate counts on Tryptic Soy Agar.

With `[Cl][Ag]` [AgCl2, AgCl], the “MIC Ag^+1 Ion” value is given as 9.5 ppm in assay [1]; 18.8 ppm in [2]; 3.8 ppm in assay [3]; 9.8 ppm in assay [4]; 1.2 ppm in [5].

`O.O.O.O.O.O=S(=O)([O-])[O-].[Cu+2]` [Cu (II), CuSO4.5H2O]: the MIC in assay [6], in assay [7], in [8] and in [9] was above 0.5 ppm throughout. Moreover, the “antibacterial efficacy in a metalworking fluid (FIG. 1)” value in assay [10] is listed as “significantly reduced bacterial counts until the second challenge”. Moreover, the “antifungal efficacy in a metalworking fluid (FIG. 2)” value in assay [11] is “little effect on reducing the growth of fungi”.
